The values below come from PubChem BioAssay AID179 (DTP/NCI, 2004).

Calls of active or inactive are those of the source.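 How the source made its calls: active means compounds giving half or more protection of infected cells from virus-caused growth loss, again on retest; inactive means the rest.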 Where a SMILES comes first, the peptide text is derived from it. The star is where a group is joined. Boc = CC(C)(C)OC(=O)*

The experiment deals with CEM cells HIV-1 protection, formazan growth assay. The experiment in a line: NCI AIDS Antiviral Assay. The following applies: for IC50: measured here: growth of uninfected CEM cells. The method in brief:
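Five concentrations of each compound were applied to infected and uninfected human CEM cells. Protection from HIV-1 was judged from growth measured with a soluble formazan assay.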

The term EC50 denotes the concentration that produces a half-maximal response. Broadly, the IC50 is the concentration at which inhibition is half-maximal. The low end stands for greater potency in that assay, the high end for weaker potency in that assay. Regarding `O=C(c1ccccc1)c1cccc(C(=O)c2ccccc2)n1`, the EC50 is over 66.1 µM and the concentration for half-maximal inhibition (IC50) was over 66.1 µM.

`Cn1c(COC(=O)NC2CCCCC2)c(COC(=O)NC2CCCCC2)c2ccc3cc(Cl)c(Cl)cc3c21`: the EC50 was over 174 µM and the IC50 turned out to be 6.46 µM.

Take `CCC12C=CCN3CCC4(c5cc(C(c6ccccn6)c6cc7ccccc7n6C)c(OC)cc5N(C)C4C(O)(C(=O)OC)C1OC(C)=O)C32` (stereo not drawn): the EC50 was over 10.7 µM and the IC50 was over 10.7 µM.

For the compound `COc1ccc(C2=C(OC(=O)N(C)C)c3cccn3-c3cc(Cl)ccc3S2)cc1`, the EC50 was over 100 µM and the IC50 was 87.1 µM.

Regarding `C/C(=N\NC(N)=O)c1cc2cc([N+](=O)[O-])ccc2oc1=O`, the EC50 is over 70.8 µM and the IC50 is over 70.8 µM.

Take `CCCCCCCCCCCCCCCCc1c(C(=O)OC)nc(NC#N)[nH]c1=O`: the EC50 is over 14.5 µM and the IC50 was over 14.5 µM.

Consider `CC(Oc1ccc2c(=O)cc(-c3ccccc3)oc2c1)C(=O)O` (stereo not drawn), for which the outcome was inactive.

Regarding `O=C(Nc1ccc(Cl)cc1)c1cc(S(=O)(=O)Nc2nc3ncccc3[nH]2)c(SSc2cc(Cl)c(C(=O)Nc3ccc(Cl)cc3)cc2S(=O)(=O)Nc2nc3ncccc3[nH]2)cc1Cl`, the EC50 was over 200 µM and the IC50 was over 200 µM.

`COC1C(O)C(C)OC(OC2C(Oc3cccc4c(O)c5c(=O)oc6ccc(C)c7c(=O)oc(c34)c5c67)OC(C)C3O[C@H](c4ccccc4)OC32)C1O` (stereo partly drawn): the EC50 is over 7.24 µM and the IC50 is 0.0912 µM.

Turning to `Cc1cc2cc3c(C)cc(=O)oc3c(C)c2o1`, the EC50 was over 56.2 µM and the IC50 is over 56.2 µM.

In the case of `CC(=O)NCCC1CN(C(=O)/C=C\C#C[Si](C)(C)C)c2ccccc21` (stereo not drawn), the EC50 is over 200 µM and the IC50 is 19.5 µM.

On to `N#CC(C(=O)CCC(=O)C(C#N)c1ccccc1)c1ccccc1` (stereo not drawn), for which the EC50 was over 398 µM and the IC50 was over 398 µM.

`CC(=N\N)/C(C)=N/N=C(C)/C(C)=N/N=C(C)/C(C)=N/N=C(C)/C(C)=N/N`: the EC50 is over 200 µM and the IC50 turned out to be 15.8 µM.

Turning to `CC1=CCC2CC1C(C(=O)c1c[nH]c3ccccc13)=NC2(C)C` (stereo not drawn), the EC50 was over 81.3 µM and the IC50 was over 81.3 µM.

In the case of `NNC(=O)C(O)C(O)C(=O)NN` (stereo not drawn), the EC50 is over 1410 µM and the IC50 was 631 µM.

Regarding `CC(NC(=O)C(NC(=O)OC(C)(C)C)C(C)C)C(=O)N1CCCC1C(=O)NCC(=O)NC(C(=O)NCC(=O)O)C(C)C` (stereo not drawn) (Boc-VAPGVG-OH; configuration not given here), the EC50 was over 200 µM and the IC50 is over 200 µM.

Turning to `CNS(=O)(=O)NNS(=O)(=O)c1ccc2ccccc2c1`, the EC50 is over 575 µM and the IC50 was found to be 170 µM.

As for `C1C2CC3CC1CC(Nc1nc(NC45CC6CC(CC(C6)C4)C5)nc(NC45CC6CC(CC(C6)C4)C5)n1)(C2)C3`, the EC50 is over 200 µM and the IC50 was found to be 41.7 µM.

As for `N#Cc1nc(C(CO)N(Cc2ccccc2)C(=O)O)oc1N` (stereo not drawn), the EC50 was over 200 µM and the IC50 is over 200 µM.

For `CC(C)c1ccc2c(c1)CCC1C2(C)CCCC1(C)C(O)c1ccccc1` (stereo not drawn), the EC50 was over 200 µM and the IC50 was found to be 38 µM.

As to `COc1ccc(C(=O)/C=C/c2cccnc2)cc1OC`, the EC50 was over 200 µM and the concentration for half-maximal inhibition (IC50) came out at 2.75 µM.

As for `NC(CSS(=O)(=O)O)=NCCCCC1CCCCC1`, the EC50 is over 200 µM and the IC50 came to 30.9 µM.

For `CN(C)CC/[N+]([O-])=C(/c1ccccc1)C12CC3CC(CC(C3)C1)C2`, the result was inactive.

For the compound `CC(=O)OC12C(C)=C(C)C(=O)N1c1ccccc1N2C(C)=O` (stereo not drawn), the result was inactive.

Turning to `Cc1ccc(-n2cc(-c3ccc(Cl)cc3)c3c(NN)ncnc32)cc1`, the EC50 was over 200 µM and the half-maximal inhibitory concentration (IC50) came to 3.72 µM.

`Cc1cccc2c(O)cc(=O)oc12`: the outcome was inactive.

Take `COCN(C)c1nc(N(C)C)nc(N(C)C)n1`: the EC50 is over 100 µM and the IC50 is 70.8 µM.

`C=CCOCn1ccc(=O)[nH]c1=O`: the EC50 is over 200 µM and the IC50 was over 200 µM.

With `CN(C)c1nc(Oc2nc(N(C)C)nc(N(C)C)n2)nc(N(C)C)n1`, the EC50 is over 724 µM and the IC50 is 17.4 µM.

For `COC(=O)c1nc(N)[nH]c(=O)c1CCCCCc1c(C(=O)OC)nc(N)[nH]c1=O`, the EC50 is over 17.8 µM and the concentration for half-maximal inhibition (IC50) was over 17.8 µM.

Regarding `Cc1nc2c(nc1C)C(=O)C=CC2=O`, the EC50 was over 200 µM and the concentration for half-maximal inhibition (IC50) stood at 11.5 µM.

On to `O=S1[C@H](c2ccccc2)c2c(-c3ccccc3)sc(-c3ccccc3)c2[C@@H]1c1ccccc1` (stereo partly drawn), for which the outcome was inactive.

As for `COc1ccc([P+](Cc2ccccc2)(c2ccccc2)c2ccc3ccccc3c2)cc1` (stereo not drawn), the EC50 is over 200 µM and the IC50 is 0.794 µM.

Take `COC(=O)CCS/C=C/C(=O)O`: the EC50 is over 1320 µM and the IC50 was over 1320 µM.

On to `O=C(OC1CN2CCC1CC2)N(c1ccccc1)c1ccccc1` (stereo not drawn), for which the EC50 was over 200 µM and the IC50 is over 200 µM.

For `O=C1C(Br)=C(c2ccccc2)C(c2ccccc2)=C1c1ccccc1`, the outcome was inactive.

Turning to `O=C1CC(=O)N(C=C2C(=O)NC(=O)NC2=O)C(=S)N1`, the EC50 was over 200 µM and the 50% inhibitory concentration (IC50) is over 200 µM.

Turning to `O=[N+]([O-])c1ccc2[nH]c(=S)[nH]c(=S)c2c1`, the EC50 is over 200 µM.

Regarding `COC(=O)N1CC2CC(=O)OCC2[C@@H]1CO` (stereo partly drawn), the EC50 was over 724 µM and the IC50 was over 724 µM.

`COC(=O)c1cc(C(CCl)c2cc(C(=O)OC)c(OC)c(Br)c2C)c(C)c(Br)c1OC`: the EC50 was over 200 µM and the IC50 is 8.71 µM.

Consider `CCOC(=O)Nc1cc2c(c(N)n1)N=C(c1ccccc1)CO2`, for which the EC50 is over 16.6 µM and the IC50 was 0.0933 µM.

Regarding `Oc1ccccc1-c1nnc2n1N=C(c1ccc(-c3ccccc3)cc1)CS2`, the EC50 was over 200 µM and the IC50 was found to be 15.5 µM.

Compound `CC(C)NC(=O)CNC(=O)c1ccccc1SC(=O)CCCC[n+]1ccccc1` gave a concentration for a half-maximal effect (EC50) of over 0.575 µM.

For `O=[N+]([O-])c1cc2cnn(CO)c2cc1[N+](=O)[O-]`, the EC50 was over 200 µM and the IC50 is 16.6 µM.

For the compound `OC1CCC2OOC1O2` (stereo not drawn), the result was inactive.

For the compound `CC1(c2ccccc2)CCCC/C1=N/NC(N)=O` (stereo not drawn), the EC50 was 105 µM and the IC50 amounted to 129 µM.

Consider `CC(=O)CC(c1ccccc1)c1c(O)c2ccccc2oc1=O` (stereo not drawn), for which the EC50 is over 813 µM and the IC50 worked out at 372 µM.

As for `CN(C)C=C(S(C)(=O)=O)S(C)(=O)=O`, the EC50 was over 200 µM and the IC50 was 126 µM.

With `CN1C(=O)C(=O)N2c3ccc(Cl)cc3C3(c4ccccc4)N=CC12O3` (stereo not drawn), the EC50 was over 36.3 µM and the half-maximal inhibitory concentration (IC50) is 5.5 µM.

In the case of `N#CCCC1C(C#N)C2CC1C1C3C=CC(C3)C21` (stereo not drawn), the EC50 is over 200 µM and the IC50 was over 200 µM.

For `COC1=CC(O)(CC(N)=O)c2ccccc2C1=O` (stereo not drawn), the EC50 is over 1000 µM and the IC50 was over 1000 µM.

With `CC(C)OP(=O)(OC(C)C)C(=NCCN=C(NNc1ccccc1[N+](=O)[O-])P(=O)(OC(C)C)OC(C)C)NNc1ccccc1[N+](=O)[O-]`, the EC50 is over 13.8 µM and the IC50 is over 13.8 µM.

Turning to `C=CCN1CCC23c4c5ccc(O)c4OC2C(=NN=C2CCC4(O)C6Cc7ccc(O)c8c7C4(CCN6CC=C)C2O8)CCC3(O)C1C5` (stereo not drawn), the EC50 is over 200 µM and the IC50 was 10.5 µM.

`COC(=O)/C(=C\c1ccco1)P(=O)(OC)OC`: the EC50 is over 200 µM and the IC50 was found to be 191 µM.

`N#CC(C#N)=Cc1c[nH]c2ccccc12`: the outcome was inactive.

On to `NC(=O)c1cccc(C2OC(COP(=O)(O)O)C(O)C2O)c1` (stereo not drawn), for which the EC50 is over 661 µM and the IC50 worked out at 3.47 µM.

Take `CCC1=C(OC)c2nc(C)ccc2C(=O)C1=O`: the outcome was inactive.

For `COc1ccc(/C=C2\C(=O)N(C)C(=O)c3cc(OC)c(OC)cc32)cc1OC`, the EC50 is over 100 µM and the IC50 was 51.3 µM.

On to `O=C(c1ccccc1)N1CCN2CCN=C(c3ccccc3)C21c1ccccc1` (stereo not drawn), for which the EC50 is over 132 µM and the IC50 is over 132 µM.

With `O=C(CCCN1CCC2(CC1)C(=O)NCN2c1ccc(F)cc1)c1ccc(F)cc1`, the EC50 was over 200 µM and the IC50 is over 200 µM.

`CCN(CC)CCC(=O)c1ccc(Sc2ccc(F)cc2)cc1`: the result was inactive.

Regarding `CCOC1C(CC/C=C\c2ccccc2)CCCCN1C(=O)OC(C)(C)C` (stereo not drawn), the EC50 is over 251 µM and the IC50 is over 251 µM.

Consider `CC(=O)OC1/C=C(\C)C(OC(C)=O)C/C=C(/C)CCC2C(/C=C/C1=O)C2(C)C` (stereo not drawn), for which the EC50 was over 66.1 µM and the half-inhibitory concentration (IC50) is over 66.1 µM.

Consider `CCSc1c2ccccc2nc2c(OC)ccc(OC)c12`, for which the result was inactive.

With `O=c1c(SCc2ccc(Cl)cc2)c(N2CCOCC2)cnn1-c1ccccc1`, the EC50 was over 63.1 µM and the half-maximal inhibitory concentration (IC50) was determined as 44.7 µM.

`CCOC(=O)C1(C(C)=O)OC(=O)c2cnccc21` (stereo not drawn): the EC50 is over 200 µM and the half-maximal inhibitory concentration (IC50) is over 200 µM.

As for `N#Cc1ccc(/C=N\N2C(=O)c3ccccc3C2=O)cc1`, the EC50 was over 26.3 µM and the half-maximal inhibitory concentration (IC50) was over 26.3 µM.

For `COC1(OC)C=CC2C1C1C=CC2C1(OC)OC` (stereo not drawn), the EC50 is over 200 µM and the IC50 was over 200 µM.

`Cc1cc(O)c2c(c1)C(=O)C=CC2=O`: the outcome was inactive.

Consider `COc1cc(NS(=O)(=O)c2ccc(NC(=O)c3ccccc3SC(=O)CCCC[n+]3ccccc3)cc2)nc(OC)n1`, for which the half-maximal effective concentration (EC50) was 26.9 µM and the half-maximal inhibitory concentration (IC50) was found to be 60.3 µM.

Consider `Cc1c(Cl)nc(Nc2nc3ccccc3[nH]2)nc1Cl`, for which the outcome was inactive.

Take `COc1cc(NC(=O)CC(C)=O)cc2c(C)cc(=O)n(C)c12`: the EC50 is over 200 µM and the IC50 came to 117 µM.

`CCC1OC(=O)CC(O)C(C)C(OC2OC(C)CC(N(C)C)C2O)C(CC=O)CC(C)C(=O)/C=C/C2(C)OC2C1C` (stereo not drawn): the EC50 is over 200 µM and the IC50 was determined as 33.9 µM.

As for `COc1cc(C(=O)Nc2nnc(S(N)(=O)=O)s2)cc(OC)c1OC`, the EC50 is over 200 µM and the IC50 was over 200 µM.
